Five molecules from PMC8391922, “The Combined Effect of Branching and Elongation on the Bioactivity Profile of Phytocannabinoids. Part I: Thermo-TRPs” (Biomedicines, 2021) can be followed below.

Broadly, the IC50 is the concentration that inhibits the measured activity by half. Broadly, the EC50 is the concentration that produces a half-maximal response.

Assay type in all cases: cell-based
One test concerns the target T1, rat TRPM8 (Rattus norvegicus, UniProt Q8R455).
T1 construct: expressed in transfected cells; host or cells: HEK-293
Briefly: TRPM8 antagonism of icilin-induced intracellular Ca2+ elevation (Fluo-4) in transfected HEK-293 cells. The settings on record: compound added 5 min before agonist icilin 0.25 μM. The method, then: (§1) Assays of rat TRPA1, TRPV2, TRPV3, TRPV4, and TRPM8 or human TRPV1 mediated elevation of intracellular Ca ^2+ in transfected HEK-293 cells were performed with a continuous monitoring of [Ca ^2+]i during the experiments. […] Cell fluorescence before and after the addition of various concentrations of test compounds was measured, normalizing the effects against the response to ionomycin (IM, 4 μM). The values of the effect on [Ca^2+]i in HEK-293 cells not transfected were used as baseline and subtracted from the values obtained from transfected cells. For TRPA1, agonist efficacy was expressed as a percentage of the effect on [Ca ^2+]i observed with 100 μM allylisothiocyanate. […] In the TRPV3 assay, TRPV3-expressing HEK293 cells were first sensitized with the structurally unrelated agonist 2-aminoethoxydiphenyl borate (100 μM). Antagonist/desensitizing behavior is evaluated against the agonist of the TRP analyzed by adding the compounds directly in the quartz cuvette 5 min before stimulation of cells with the agonist. […] Dose-response curve fitting (sigmoidal dose-response variable slope) and parameter estimation were performed with Graph-Pad Prism8 (GraphPad Software Inc., San Diego, CA, USA). All determinations were performed at least in triplicate.

Another test has as its target T2, human TRPV1 (Homo sapiens, UniProt Q8NER1).
T2 construct: expressed in transfected cells; host or cells: HEK-293
Briefly: TRPV1-mediated elevation of intracellular Ca2+ (Fluo-4) in transfected HEK-293 cells. The following applies: for TRPV1 Efficacy (% IM 4 μM): percentage of the response to ionomycin 4 μM, HEK-293. The method, then:
as §1

Another test has as its target T3, rat TRPV3 (Rattus norvegicus, UniProt Q4QYD9).
T3 construct: expressed in transfected cells; host or cells: HEK-293
T3 sequence (Q4QYD9 1-791): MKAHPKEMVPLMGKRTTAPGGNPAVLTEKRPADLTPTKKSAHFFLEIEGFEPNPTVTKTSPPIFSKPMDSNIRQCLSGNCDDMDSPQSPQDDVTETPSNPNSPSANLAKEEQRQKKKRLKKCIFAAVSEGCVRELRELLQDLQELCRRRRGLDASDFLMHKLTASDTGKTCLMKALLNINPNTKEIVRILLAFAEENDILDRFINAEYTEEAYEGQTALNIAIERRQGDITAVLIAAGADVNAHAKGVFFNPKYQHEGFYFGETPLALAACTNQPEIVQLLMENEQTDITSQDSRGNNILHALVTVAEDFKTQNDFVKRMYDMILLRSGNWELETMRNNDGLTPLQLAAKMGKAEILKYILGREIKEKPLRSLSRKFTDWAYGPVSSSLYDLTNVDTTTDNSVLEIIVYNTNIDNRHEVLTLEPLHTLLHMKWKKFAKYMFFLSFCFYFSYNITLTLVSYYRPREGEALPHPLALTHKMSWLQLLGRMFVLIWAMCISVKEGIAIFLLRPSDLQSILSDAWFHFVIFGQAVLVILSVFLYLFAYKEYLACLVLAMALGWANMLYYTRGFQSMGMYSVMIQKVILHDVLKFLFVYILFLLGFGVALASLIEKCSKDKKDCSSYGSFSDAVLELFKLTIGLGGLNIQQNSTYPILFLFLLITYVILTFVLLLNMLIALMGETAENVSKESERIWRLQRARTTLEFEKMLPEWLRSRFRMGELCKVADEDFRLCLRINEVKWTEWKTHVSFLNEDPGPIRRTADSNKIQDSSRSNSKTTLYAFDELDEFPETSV
Briefly: TRPV3-mediated elevation of intracellular Ca2+ (Fluo-4) in transfected HEK-293 cells. The settings on record: for IC50: antagonist/desensitizing, compound added 5 min before agonist thymol 100 μM; for EC50: half-maximal increase in [Ca2+]i, HEK-293, read-out: TRPV3 Potency EC50; for TRPV3 Efficacy (% IM 4 μM): percentage of the response to ionomycin 4 μM, cells sensitized with 2-aminoethoxydiphenyl borate 100 μM. The method, then:
Effects of compounds on intracellular Ca^2+ concentration ([Ca^2+]i) were determined using Fluo-4, a selective intracellular fluorescent probe for Ca ^2+. Assays of rat TRPA1, TRPV2, TRPV3, TRPV4, and TRPM8 or human TRPV1 mediated elevation of intracellular Ca ^2+ in transfected HEK-293 cells were performed with a continuous monitoring of [Ca ^2+]i during the experiments. Briefly, human embryonic kidney (HEK-293) cells, stably transfected with rat TRPA1, TRPV2, TRPV3, TRPV4, and TRPM8 or human TRPV1 (selected by geneticin 600 μg mL ^−1) or not transfected, were cultured in EMEM+ 2 mM glutamine + 1% nonessential amino acids +10% FBS and maintained at 37 °C with 5% CO2. TRP-HEK-293 cells express stably high levels of TRP transcripts, while these transcripts were virtually absent in wild-type HEK-293 cells as checked by real-time PCR. On the day of the experiment, the cells were loaded for 1 h in the dark at room temperature with Fluo-4 AM (4 μM in DMSO containin 0.02% Pluronic F-127). The cells were rinsed, resuspended in Tyrode’s solution (145 mM NaCl, 2.5 mM KCl, 1.5 mM CaCl2, 1.2 mM MgCl2, 10 mM D-glucose, and 10 mM HEPES, pH 7.4), and transferred to a quartz cuvette of a spectrofluorimeter (PerkinElmer LS50B; λEX = 488 nm, λEM = 516 nm) equipped with a PTP-1 fluorescence Peltier system (PerkinElmer Life and Analytical Sciences, Waltham, MA, USA) under continuous stirring. Cell fluorescence before and after the addition of various concentrations of test compounds was measured, normalizing the effects against the response to ionomycin (IM, 4 μM). The values of the effect on [Ca^2+]i in HEK-293 cells not transfected were used as baseline and subtracted from the values obtained from transfected cells. For TRPA1, agonist efficacy was expressed as a percentage of the effect on [Ca ^2+]i observed with 100 μM allylisothiocyanate. The potency of the compounds (EC50 values) is determined as the concentration required to produce half-maximal increases in [Ca ^2+]i. In the TRPV3 assay, TRPV3-expressing HEK293 cells were first sensitized with the structurally unrelated agonist 2-aminoethoxydiphenyl borate (100 μM). Antagonist/desensitizing behavior is evaluated against the agonist of the TRP analyzed by adding the compounds directly in the quartz cuvette 5 min before stimulation of cells with the agonist. Allylisothiocyanate (100 μM) was used for TRPA1, capsaicin (0.1 μM) for TRPV1, cannabidiol (2 μM) for TRPV2, thymol (100 μM) for TRPV3, GSK1016790A (10 nM) for TRPV4, and icilin (0.25 μM) for TRPM8. The IC50 value was expressed as the concentration exerting a half-maximal inhibition of agonist effect, taking as 100% the effect on [Ca^2+]i exerted by the agonist alone. Dose-response curve fitting (sigmoidal dose-response variable slope) and parameter estimation were performed with Graph-Pad Prism8 (GraphPad Software Inc., San Diego, CA, USA). All determinations were performed at least in triplicate.

Where [1] appears, read: antagonist, read-out: IC50 TRPM8.
[2] abbreviates: antagonist/desensitizing, compound added 5 min before agonist capsaicin 0.1 μM.
Where [3] appears, read: antagonist/desensitizing, compound added 5 min before agonist capsaicin 0.1 μM, read-out: IC50 TRPV1.

Read-outs that look alike come from different tables or passages of the source. Some results are limits rather than exact numbers.

T1 sequence (Q8R455 whole entry): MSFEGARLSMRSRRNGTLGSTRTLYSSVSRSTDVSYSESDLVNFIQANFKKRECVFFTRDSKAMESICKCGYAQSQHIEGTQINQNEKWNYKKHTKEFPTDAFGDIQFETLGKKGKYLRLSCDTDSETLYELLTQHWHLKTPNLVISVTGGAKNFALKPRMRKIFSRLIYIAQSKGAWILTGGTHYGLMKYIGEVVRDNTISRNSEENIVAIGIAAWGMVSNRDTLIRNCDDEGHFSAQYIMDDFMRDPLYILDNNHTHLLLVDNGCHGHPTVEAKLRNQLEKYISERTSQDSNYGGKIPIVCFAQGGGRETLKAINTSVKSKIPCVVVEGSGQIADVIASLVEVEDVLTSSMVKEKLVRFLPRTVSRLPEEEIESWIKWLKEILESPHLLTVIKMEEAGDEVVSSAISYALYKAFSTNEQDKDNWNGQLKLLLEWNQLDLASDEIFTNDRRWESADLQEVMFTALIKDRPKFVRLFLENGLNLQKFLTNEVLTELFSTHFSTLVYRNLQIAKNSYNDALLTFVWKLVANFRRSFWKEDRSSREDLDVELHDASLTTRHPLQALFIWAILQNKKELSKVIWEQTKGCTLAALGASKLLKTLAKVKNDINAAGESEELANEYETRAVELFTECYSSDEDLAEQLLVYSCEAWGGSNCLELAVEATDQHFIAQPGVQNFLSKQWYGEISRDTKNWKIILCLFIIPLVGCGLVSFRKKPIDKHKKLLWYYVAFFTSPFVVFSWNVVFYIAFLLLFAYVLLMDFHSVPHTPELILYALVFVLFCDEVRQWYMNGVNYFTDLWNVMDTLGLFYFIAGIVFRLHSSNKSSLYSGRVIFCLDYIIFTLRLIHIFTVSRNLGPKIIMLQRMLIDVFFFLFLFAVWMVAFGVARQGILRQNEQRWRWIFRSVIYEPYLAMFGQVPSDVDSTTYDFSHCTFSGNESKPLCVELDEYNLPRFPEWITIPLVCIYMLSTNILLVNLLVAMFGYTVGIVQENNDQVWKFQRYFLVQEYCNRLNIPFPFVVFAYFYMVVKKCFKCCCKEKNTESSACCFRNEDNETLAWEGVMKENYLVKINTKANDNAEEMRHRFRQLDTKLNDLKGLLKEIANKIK
T2 sequence (Q8NER1 whole entry): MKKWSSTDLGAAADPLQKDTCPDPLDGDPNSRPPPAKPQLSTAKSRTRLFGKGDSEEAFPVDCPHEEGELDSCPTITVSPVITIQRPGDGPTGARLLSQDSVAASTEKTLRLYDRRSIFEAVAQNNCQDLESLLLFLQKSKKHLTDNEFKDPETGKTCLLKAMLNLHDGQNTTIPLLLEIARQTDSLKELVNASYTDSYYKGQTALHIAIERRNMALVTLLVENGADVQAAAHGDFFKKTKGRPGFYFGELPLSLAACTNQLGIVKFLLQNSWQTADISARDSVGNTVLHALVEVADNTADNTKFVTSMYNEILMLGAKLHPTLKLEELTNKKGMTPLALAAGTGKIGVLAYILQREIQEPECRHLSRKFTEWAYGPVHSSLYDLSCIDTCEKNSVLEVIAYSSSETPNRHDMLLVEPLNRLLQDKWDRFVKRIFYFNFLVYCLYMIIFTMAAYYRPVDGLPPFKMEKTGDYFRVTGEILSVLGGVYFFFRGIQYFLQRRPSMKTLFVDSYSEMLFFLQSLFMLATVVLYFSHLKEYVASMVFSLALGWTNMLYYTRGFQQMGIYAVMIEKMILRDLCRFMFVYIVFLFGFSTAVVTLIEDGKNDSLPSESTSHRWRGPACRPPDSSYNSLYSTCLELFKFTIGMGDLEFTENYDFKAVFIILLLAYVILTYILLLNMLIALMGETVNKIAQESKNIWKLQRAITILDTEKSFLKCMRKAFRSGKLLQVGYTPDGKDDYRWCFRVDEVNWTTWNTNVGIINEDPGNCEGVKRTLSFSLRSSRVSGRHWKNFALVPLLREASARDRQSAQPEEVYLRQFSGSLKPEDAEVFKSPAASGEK

On to `C=C(C)[C@@H]1CCC(C)=C[C@H]1c1c(O)cc(C(C)(C)CCCCCC)cc1O` [1b, Depentyl-α,α-dimethylheptyl-cannabidiol], for which the IC50 on rat TRPM8 (setting [1]) is 13.4 ± 2.1 µM. Moreover, at human TRPV1 (setting [2]), the “IC50 TRPV1” value was “inactive”. Moreover, the concentration for half-maximal inhibition (IC50) at human TRPV1 (setting [3]) is over 100 µM. Also, the “TRPV1 Efficacy (% IM 4 μM)” value at human TRPV1 was under 10%. Also, on rat TRPV3, the IC50 is 32.6 ± 5.1 µM, the EC50 worked out at 11 ± 1.1 µM and the “TRPV3 Efficacy (% IM 4 μM)” value is given as 15.8 ± 0.4%.
On to `CCCCCCCc1cc(O)c2c(c1)OC(C)(CCC=C(C)C)C=C2` (centres unmarked) [8c, Depentyl-5-n-heptylcannabichromene], for which the IC50 on rat TRPM8 (setting [1]), at human TRPV1 (setting [3]) and on rat TRPV3 was over 100 µM in each case. Moreover, on human TRPV1, the “TRPV1 Efficacy (% IM 4 μM)” value was under 10%. At rat TRPV3, the “TRPV3 Efficacy (% IM 4 μM)” value is given as under 10%.
With `CCCCC(C)(C)c1cc(O)c2c(c1)OC(C)(CCC=C(C)C)C=C2` (stereo not drawn) [8d, Depentyl-5-α,α-dimethylpentylcannabichromene], the IC50 on rat TRPM8 (setting [1]) was 23.6 ± 7.4 µM; at human TRPV1 (setting [3]), over 100 µM; at rat TRPV3, over 100 µM. Further, the “TRPV1 Efficacy (% IM 4 μM)” value on human TRPV1 is recorded as under 10%. The “TRPV3 Efficacy (% IM 4 μM)” value on rat TRPV3 is on record as under 10%.
In the case of `CCCCCCC(C)(C)c1cc(O)c2c(c1)OC(C)(CCC=C(C)C)C=C2` (stereo not drawn) [8b, Depentyl-α,α-dimethylheptyl-cannabichromene], at rat TRPM8 (IC50 TRPM8, antagonist), the IC50 was over 100 µM. Further, at rat TRPM8 (antagonist), the “IC50 TRPM8” value was “totally inactive”. On human TRPV1, the midpoint of the response, the EC50, lay at 12.8 ± 0.9 µM; the IC50 is over 100 µM; the “TRPV1 Efficacy (% IM 4 μM)” value is reported as 18.9 ± 0.2%. In addition, on rat TRPV3, the IC50 is over 50 µM, the EC50 is over 50 µM and the “TRPV3 Efficacy (% IM 4 μM)” value is listed as 41.6 ± 1.8%.
Molecule `CCCCCCC(C)(C)c1cc(O)c(C/C=C(\C)CCC=C(C)C)c(O)c1` [7b, Depentyl-α,α-dimethylheptyl-cannabigerol] gave an IC50 at rat TRPM8 (IC50 TRPM8, antagonist) of 9.2 ± 0.8 µM. For the same molecule, at human TRPV1, the IC50 was over 100 µM and the “TRPV1 Efficacy (% IM 4 μM)” value is under 10%. Moreover, the “IC50 TRPV1” value on human TRPV1 (setting [2]) was “inactive”. At rat TRPV3, the IC50 is 35.4 ± 3.6 µM, the EC50 worked out at 39.7 ± 0.03 µM and the “TRPV3 Efficacy (% IM 4 μM)” value stood at 64.6 ± 4.8%.
